Calls of active or inactive are those of the source. The rule behind the calls is not given here.
How the values were obtained:
[1] = system: Radical scavenging activity; test: Antioxidant activity assessed as DPPH radical scavenging activity at 20 ug/ml; assay type: functional
[2] = system: Radical scavenging activity; test: Antioxidant activity assessed as DPPH radical scavenging activity at 30 ug/ml; assay type: functional
[3] = system: Radical scavenging activity; test: Antioxidant activity assessed as DPPH radical scavenging activity at 50 ug/ml; assay type: functional
[4] = system: Radical scavenging activity; test: Antioxidant activity assessed as DPPH radical scavenging activity at 40 ug/ml; assay type: functional
Aspergillus niger = test: Antifungal activity against Aspergillus niger by poison plate assay method; assay type: functional, organism-based
Penicillium chrysogenum = test: Antifungal activity against Penicillium chrysogenum by poison plate assay method; assay type: functional, organism-based
Staphylococcus aureus = test: Antibacterial activity against Staphylococcus aureus by agar cup-plate assay method; assay type: functional
Escherichia coli = test: Antibacterial activity against Escherichia coli by agar cup-plate assay method; assay type: functional
[5] = system: Radical scavenging activity; test: Antioxidant activity assessed as DPPH radical scavenging activity at 500 ug/ml; assay type: functional
[6] = system: Radical scavenging activity; test: Antioxidant activity assessed as DPPH radical scavenging activity at 1500 ug/ml; assay type: functional
[7] = system: Radical scavenging activity; test: Antioxidant activity assessed as DPPH radical scavenging activity at 1000 ug/ml; assay type: functional
[8] = system: Radical scavenging activity; test: Antioxidant activity assessed as DPPH radical scavenging activity at 2500 ug/ml; assay type: functional

Structure (SMILES)	Activity [1]	Activity [2]	Activity [3]	Activity [4]	inhibition zone (IZ) (Aspergillus niger)	inhibition zone (IZ) (Penicillium chrysogenum)	inhibition zone (IZ) (Staphylococcus aureus)	inhibition zone (IZ) (Escherichia coli)	Activity [5]	Activity [6]	Activity [7]	Activity [8]
O=C1O[C@H]([C@@H](O)CO)C(O)=C1O	80.9%	86.7%	94.7%	92%								
Cc1ccc(/C=C/c2ccc(F)cc2)cc1					inactive	inactive	inactive	inactive	35.4%	39.5%	36.4%	45.4%
Cc1ccc(/C=C/c2ccc(C)cc2)cc1 [(E)-1,2-DI-P-TOLYLETHENE]					inactive	inactive	20 mm	inactive	34.9%	37.1%	35.7%	38%
Fc1ccc(/C=C/c2ccc(Cl)cc2Cl)cc1					inactive	Active	18 mm	inactive	35.2%	37.8%	37.1%	39.3%
COC1=CC(=O)C[C@@H](C)[C@]12Oc1c(Cl)c(OC)cc(OC)c1C2=O					Active	Active						
CC1(C)S[C@@H]2[C@H](NC(=O)Cc3ccccc3)C(=O)N2[C@H]1C(=O)O [PENICILLIN G]							40 mm	17 mm				
Fc1ccc(/C=C/c2ccc(Cl)cc2)cc1					inactive	Active	20 mm	inactive	37.4%	41.6%	40.8%	45.5%
Fc1ccc(/C=C/c2cccc(F)c2)cc1					inactive	Active	28 mm	inactive	40.5%	47.1%	42.1%	49.5%
Fc1ccc(/C=C/c2ccc(F)cc2F)cc1					inactive	inactive	30 mm	inactive	45.3%	50.3%	48%	52.5%
Clc1ccc(/C=C/c2ccc(Cl)cc2Cl)c(Cl)c1					inactive	inactive	24 mm	inactive	44.6%	50.2%	48.7%	56.4%
Fc1ccc(/C=C/c2ccc(F)c(F)c2)cc1					inactive	inactive	36 mm	inactive	43.9%	46.5%	44.6%	48.1%
Fc1ccc(/C=C/c2ccc(F)cc2)cc1					inactive	Active	24 mm	inactive	35.2%	44.9%	37.4%	53.8%
Clc1ccc(/C=C/c2ccc(Cl)c(Cl)c2)c(Cl)c1					inactive	Active	28 mm	inactive	46.5%	54.2%	49.1%	58%
Cc1ccc(/C=C/c2ccc(Cl)cc2Cl)cc1					inactive	inactive	12 mm	inactive	34.8%	37.1%	36.4%	39.1%
Fc1ccc(/C=C/c2cccc(Cl)c2)cc1					inactive	Active	22 mm	inactive	33%	37.8%	35.6%	39.8%
Clc1cccc(/C=C/c2ccc(Cl)cc2Cl)c1					inactive	Active	26 mm	inactive	44.7%	56.1%	49.7%	61.4%
Clc1ccc(/C=C/c2ccc(Cl)cc2Cl)cc1					inactive	inactive	24 mm	inactive	41.3%	45.7%	43.5%	47.2%
